Drawing on ChEMBL document CHEMBL1817628, “Structure-based design of new DHFR-based antibacterial agents: 7-aryl-2,4-diaminoquinazolines” (Bioorg Med Chem Lett, 2011), this text covers MIC and Ki for 13 compounds.

Values after ≈ are worked out from the molar mass of the structure shown.

The subject of assay [1] is Staphylococcus aureus. Briefly: Antibacterial activity against TMP-resistant Staphylococcus aureus harboring DHFR F99Y mutant by CLSI microdilution method. In kind it is functional. A general note: Dilution methods test growth across graded concentrations, often in twofold steps.
Another assay has as its system Escherichia coli. Briefly: Antibacterial activity against Escherichia coli ATCC 35218 by CLSI microdilution method. The format is functional.
The subject of assay [2] is Staphylococcus aureus. Kind of assay: Antibacterial activity against Staphylococcus aureus Smith ATCC 13709 in presence of 20% mouse serum by CLSI microdilution method. The format is functional.
A further assay relates to Haemophilus influenzae. Kind of assay: Antibacterial activity against ampicillin-resistant Haemophilus influenzae ATCC 49247 by CLSI microdilution method. In kind it is functional.
Assay [3] in a line: Inhibition of Haemophilus influenzae DHFR assessed as oxidation of NADPH using dihydrofolate as substrate pre-incubated for 10 mins before substrate addition by spectrophotometry.
A further assay relates to Enterococcus faecalis. Kind of assay: Antibacterial activity against Enterococcus faecalis ATCC 29212 by CLSI microdilution method. The format is functional.
Assay [4] relates to Staphylococcus aureus. Briefly: Antibacterial activity against Staphylococcus aureus Smith ATCC 13709 by CLSI microdilution method. In kind it is functional.
The target in assay [5] is T1, Dihydrofolate reductase (Homo sapiens, UniProt P00374).
T1 sequence (P00374 whole entry): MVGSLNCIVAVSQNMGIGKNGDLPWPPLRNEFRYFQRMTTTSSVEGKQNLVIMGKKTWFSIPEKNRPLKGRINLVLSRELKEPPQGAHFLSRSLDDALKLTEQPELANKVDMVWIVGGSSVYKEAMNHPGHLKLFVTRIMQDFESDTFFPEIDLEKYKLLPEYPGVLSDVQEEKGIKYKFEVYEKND
Briefly: Inhibition of human DHFR assessed as oxidation of NADPH using dihydrofolate as substrate pre-incubated for 10 mins before substrate addition by spectrophotometry.

In assay [6] the target is Dihydrofolate reductase (Staphylococcus aureus, UniProt P0A017). Briefly: Inhibition of Staphylococcus aureus DHFR assessed as oxidation of NADPH using dihydrofolate as substrate pre-incubated for 10 mins before substrate addition by spectrophotometry.
Assay [7] addresses Dihydrofolate reductase (Staphylococcus aureus, UniProt P0A017, F99Y). Briefly: Inhibition of TMP-resistant Staphylococcus aureus DHFR F99Y mutant assessed as oxidation of NADPH using dihydrofolate as substrate pre-incubated for 10 mins before substrate addition by spectrophotometry.

Usually Ki stands for the equilibrium dissociation constant of an inhibitor or competing ligand from its target. For the compound `COc1cc(Cc2cnc(N)nc2N)c2c(c1OC)OC(C1CC1)C=C2` (configuration not stated), the MIC in the assay with Staphylococcus aureus [1] amounted to 2 µg/mL (≈ 5.64 µM); with Escherichia coli, 4 µg/mL (≈ 11.3 µM); with Staphylococcus aureus [2], 0.13 µg/mL; in the assay on Haemophilus influenzae it was 1 µg/mL (≈ 2.82 µM); against Enterococcus faecalis, 0.03 µg/mL (≈ 0.0846 µM); against Staphylococcus aureus [4] it was 0.13 µg/mL (≈ 0.367 µM). Besides, the Ki in [3] was determined as 0.007 nM.
Regarding `Cc1ccccc1-c1cc2nc(N)nc(N)c2cc1C`, the MIC was found to be 8 µg/mL (≈ 30.3 µM) in the assay with Escherichia coli; 2 µg/mL in the assay on Staphylococcus aureus [2]; 4 µg/mL (≈ 15.1 µM) against Haemophilus influenzae; 0.5 µg/mL (≈ 1.89 µM) with Enterococcus faecalis; 0.5 µg/mL (≈ 1.89 µM) in the assay with Staphylococcus aureus [4]. Further, the Ki at Dihydrofolate reductase [5] amounted to 95.6 nM; at Dihydrofolate reductase [6], 0.77 nM; in assay [3], 0.037 nM.
Regarding `CCOc1ccc(-c2cccc(NS(C)(=O)=O)c2)cc1-c1ccc2c(N)nc(N)nc2c1`, the MIC against Escherichia coli stood at 64 µg/mL (≈ 142 µM); in the assay on Staphylococcus aureus [2], 2 µg/mL; against Haemophilus influenzae, 8 µg/mL (≈ 17.8 µM); in the assay on Enterococcus faecalis, 0.5 µg/mL (≈ 1.11 µM); with Staphylococcus aureus [4], 0.5 µg/mL (≈ 1.11 µM). The Ki in assay [3] was 0.0049 nM.
As for `Cc1cc2c(N)nc(N)nc2cc1-c1ccc(N)cc1`, the MIC worked out at 8 µg/mL (≈ 30.2 µM) against Escherichia coli; 1 µg/mL in the assay on Staphylococcus aureus [2]; 2 µg/mL (≈ 7.54 µM) against Haemophilus influenzae; 0.5 µg/mL (≈ 1.88 µM) in the assay on Enterococcus faecalis; 1 µg/mL (≈ 3.77 µM) against Staphylococcus aureus [4]. Moreover, in [3], the Ki is 0.0018 nM.
With `Nc1ccc(-c2ccc3c(N)nc(N)nc3c2)cc1`, the MIC against Escherichia coli came to 32 µg/mL (≈ 127 µM); in the assay with Staphylococcus aureus [2] it was 2 µg/mL; in the assay with Haemophilus influenzae, 4 µg/mL (≈ 15.9 µM); against Enterococcus faecalis, 8 µg/mL (≈ 31.8 µM); with Staphylococcus aureus [4] it was 4 µg/mL (≈ 15.9 µM). In addition, in assay [3], the Ki was 0.16 nM.
`CCOc1ccc(C)cc1-c1cc2nc(N)nc(N)c2cc1C`: the MIC worked out at 16 µg/mL (≈ 51.9 µM) against Escherichia coli; 4 µg/mL with Staphylococcus aureus [2]; 16 µg/mL (≈ 51.9 µM) in the assay on Haemophilus influenzae; 0.5 µg/mL (≈ 1.62 µM) in the assay with Enterococcus faecalis; 1 µg/mL (≈ 3.24 µM) in the assay on Staphylococcus aureus [4]. Further, the Ki at Dihydrofolate reductase [5] was 22.2 nM; at Dihydrofolate reductase [6], 0.85 nM; in [3], 0.034 nM.
Consider `CCOc1ccc2[nH]ccc2c1-c1cc2nc(N)nc(N)c2cc1C`, for which the MIC turned out to be 8 µg/mL (≈ 24 µM) in the assay on Escherichia coli; 1 µg/mL in the assay on Staphylococcus aureus [2]; 16 µg/mL (≈ 48 µM) in the assay on Haemophilus influenzae; 0.25 µg/mL (≈ 0.75 µM) in the assay with Enterococcus faecalis; 0.25 µg/mL (≈ 0.75 µM) against Staphylococcus aureus [4]. Besides, the inhibitory constant (Ki) was found to be 245 nM at Dihydrofolate reductase [5], 0.61 nM on Dihydrofolate reductase [6] and 0.082 nM in [3].
In the case of `COc1cc(Cc2cnc(N)nc2N)cc(OC)c1OC` [TRIMETHOPRIM], the MIC came to 32 µg/mL (≈ 110 µM) against Staphylococcus aureus [1]; 1 µg/mL (≈ 3.44 µM) in the assay on Escherichia coli; 1 µg/mL with Staphylococcus aureus [2]; 0.5 µg/mL (≈ 1.72 µM) in the assay with Haemophilus influenzae; 0.5 µg/mL (≈ 1.72 µM) against Enterococcus faecalis; 1 µg/mL (≈ 3.44 µM) in the assay with Staphylococcus aureus [4]. Also, in assay [3], the Ki came to 0.19 nM.
For `COc1ccc(OC)c(-c2cc3nc(N)nc(N)c3cc2C)c1`, the MIC against Escherichia coli came out at 16 µg/mL (≈ 51.6 µM); with Staphylococcus aureus [2], 1 µg/mL; in the assay on Haemophilus influenzae, 8 µg/mL (≈ 25.8 µM); in the assay on Enterococcus faecalis it was 4 µg/mL (≈ 12.9 µM); against Staphylococcus aureus [4], 1 µg/mL (≈ 3.22 µM). In assay [3], the Ki worked out at 0.014 nM.
On to `CCOc1ccc(Cl)cc1-c1cc2nc(N)nc(N)c2cc1C`, for which the MIC turned out to be 8 µg/mL (≈ 24.3 µM) in the assay with Escherichia coli; 2 µg/mL in the assay on Staphylococcus aureus [2]; 8 µg/mL (≈ 24.3 µM) with Haemophilus influenzae; 0.5 µg/mL (≈ 1.52 µM) in the assay on Enterococcus faecalis; 1 µg/mL (≈ 3.04 µM) against Staphylococcus aureus [4]. In addition, the results for the Ki (at Dihydrofolate reductase [5]; on Dihydrofolate reductase [6]; in [3]) were 11.1 nM, 0.38 nM and 0.023 nM, respectively.
Regarding `CCOc1ccc2ccccc2c1-c1cc2nc(N)nc(N)c2cc1C`, the MIC against Staphylococcus aureus [1] amounted to 1 µg/mL (≈ 2.9 µM); against Escherichia coli, 16 µg/mL (≈ 46.5 µM); in the assay on Staphylococcus aureus [2], 0.5 µg/mL; against Haemophilus influenzae it was 16 µg/mL (≈ 46.5 µM); against Enterococcus faecalis, 0.5 µg/mL (≈ 1.45 µM); against Staphylococcus aureus [4], 0.125 µg/mL (≈ 0.363 µM). Further, the Ki in assay [3] worked out at 0.015 nM; at Dihydrofolate reductase [7], 2.4 nM.
For `Nc1nc(N)c2ccc(-c3ccccc3)cc2n1`, the MIC is 16 µg/mL (≈ 67.7 µM) against Escherichia coli; 64 µg/mL with Staphylococcus aureus [2]; 16 µg/mL (≈ 67.7 µM) with Haemophilus influenzae; 8 µg/mL (≈ 33.9 µM) with Enterococcus faecalis; 8 µg/mL (≈ 33.9 µM) against Staphylococcus aureus [4]. The Ki amounted to 743 nM on Dihydrofolate reductase [5], 9.1 nM on Dihydrofolate reductase [6] and 0.52 nM in [3].
With `CC(=O)c1cccc(-c2ccc3c(N)nc(N)nc3c2)c1`, the MIC was determined as 32 µg/mL (≈ 115 µM) against Escherichia coli; 8 µg/mL with Staphylococcus aureus [2]; 64 µg/mL (≈ 230 µM) against Haemophilus influenzae; 4 µg/mL (≈ 14.4 µM) against Enterococcus faecalis; 4 µg/mL (≈ 14.4 µM) against Staphylococcus aureus [4]. For the same compound, the Ki in [3] is 0.31 nM.
